C[C@@H](Oc1ccc(Oc2nc3ccc(Cl)cc3o2)cc1)C(=O)N(C)c1ccccc1F
solubility (mole fraction)
Conditions | in cyclohexane | in isobutanol | in isopentanol | in isopropanol | in n-butanol | in n-hexane | in n-pentanol | in n-propanol | in sec-butanol
278.15 K | – | 0.00347 | 0.00526 | 0.00231 | 0.00631 | 0.000329 | 0.00739 | 0.00476 | 0.00344
283.15 K | 0.00449 | 0.00487 | 0.00724 | 0.00315 | 0.00822 | 0.000495 | 0.00951 | 0.00646 | 0.00491
288.15 K | 0.00627 | 0.00676 | 0.00977 | 0.00422 | 0.0109 | 0.000594 | 0.0123 | 0.00876 | 0.00683
293.15 K | 0.00814 | 0.00921 | 0.013 | 0.00543 | 0.0139 | 0.000811 | 0.015 | 0.0115 | 0.00919
298.15 K | 0.0115 | 0.0126 | 0.0173 | 0.00714 | 0.0183 | 0.00112 | 0.0187 | 0.0155 | 0.0122
303.15 K | 0.0146 | 0.0169 | 0.0216 | 0.00963 | 0.0237 | 0.00156 | 0.0228 | 0.0209 | 0.016
308.15 K | 0.0208 | – | – | – | – | 0.00196 | – | – | –
313.15 K | 0.0287 | – | – | – | – | 0.00245 | – | – | –
